Laboratory results as given in ChEMBL document CHEMBL1132853, “Design and synthesis of highly potent fumagillin analogues from homology modeling for a human MetAP-2” (Bioorg Med Chem Lett, 2000).
In brackets after ≈: the same amount, converted by molar mass.

What was measured:
EL4 = test: Tested in vitro for its ability to inhibit cell proliferation of lymphoma EL-4 cells measured […] by MTT method; format: functional, cell-based, Mus musculus
CPAE = test: Tested in vitro for its ability to inhibit cell proliferation of calf pulmonary artery endothelial cells measured […] by SRB method; format: functional, cell-based, Bos taurus
P388 = test: Tested in vitro for its ability to inhibit cell proliferation of murine leukemia P388D1 cells measured […] by MTT method; format: functional, cell-based; conditions: Mus musculus
[1] = Mus musculus, EL4, read-out: IC50
[2] = Bos taurus, CPAE, Artery, read-out: IC50

Structure (SMILES)	IC50 (EL4; [1]) [ng/mL]	IC50 (CPAE; [2]) [ng/mL]	IC50 (P388) [ng/mL]	IC50 (EL4; el4) [ng/mL]	IC50 (CPAE; cpae) [ng/mL]
COc1ccc(COC(=O)O[C@@H]2CC[C@]3(CO3)[C@@H]([C@@]3(C)O[C@@H]3CC=C(C)C)[C@@H]2OC)cc1	42 (≈ 94.1 nM)	18 (≈ 40.3 nM)			
COc1ccc(CCOC(=O)O[C@@H]2CC[C@]3(CO3)[C@@H]([C@@]3(C)O[C@@H]3CC=C(C)C)[C@@H]2OC)cc1	153 (≈ 332 nM)	2.3 (≈ 4.99 nM)			
COc1ccc(/C=C\C(=O)O[C@@H]2CC[C@]3(CO3)[C@@H]([C@@]3(C)O[C@@H]3CC=C(C)C)[C@@H]2OC)cc1	12 (≈ 27.1 nM)	24 (≈ 54.2 nM)			
CO[C@@H]1[C@H](O)CC[C@]2(CO2)[C@H]1[C@@]1(C)O[C@@H]1CC=C(C)C	5.16 (≈ 18.3 nM)	15 (≈ 53.1 nM)	> 10		
COc1ccc(CCNC(=O)O[C@@H]2CC[C@]3(CO3)[C@@H]([C@@]3(C)O[C@@H]3CC=C(C)C)[C@@H]2OC)cc1OC	0.042 (≈ 0.0858 nM)	0.044 (≈ 0.0899 nM)	> 1		
COc1cc(CCC(=O)O[C@@H]2CC[C@]3(CO3)[C@@H]([C@@]3(C)O[C@@H]3CC=C(C)C)[C@@H]2OC)cc(OC)c1OC	36 (≈ 71.3 nM)	44 (≈ 87.2 nM)			
COc1cc(/C=C/C(=O)O[C@@H]2CC[C@]3(CO3)[C@@H]([C@@]3(C)O[C@@H]3CC=C(C)C)[C@@H]2OC)cc(OC)c1OC			> 1	0.00015 (≈ 0.000298 nM)	0.00003 (≈ 5.97e-05 nM)
CO[C@@H]1[C@H](OC(=O)/C=C/c2ccccc2)CC[C@]2(CO2)[C@H]1[C@@]1(C)O[C@@H]1CC=C(C)C	0.05 (≈ 0.121 nM)	0.046 (≈ 0.112 nM)	> 1		
CO[C@@H]1[C@H](OC(=O)NCc2ccc(C(F)(F)F)cc2)CC[C@]2(CO2)[C@H]1[C@@]1(C)O[C@@H]1CC=C(C)C	0.014 (≈ 0.029 nM)	0.0054 (≈ 0.0112 nM)	> 1		
CO[C@@H]1[C@H](OC(=S)SCc2ccccc2)CC[C@]2(CO2)[C@H]1[C@@]1(C)O[C@@H]1CC=C(C)C	14 (≈ 31.2 nM)	42 (≈ 93.6 nM)			
COc1ccc(CCCC(=O)O[C@@H]2CC[C@]3(CO3)[C@@H]([C@@]3(C)O[C@@H]3CC=C(C)C)[C@@H]2OC)cc1	83 (≈ 181 nM)	125 (≈ 273 nM)			
CO[C@@H]1[C@H](OC(=O)OCc2ccc([N+](=O)[O-])cc2)CC[C@]2(CO2)[C@H]1[C@@]1(C)O[C@@H]1CC=C(C)C	2.47 (≈ 5.35 nM)	0.11 (≈ 0.238 nM)	> 1		
COc1ccc(CNC(=O)O[C@@H]2CC[C@]3(CO3)[C@@H]([C@@]3(C)O[C@@H]3CC=C(C)C)[C@@H]2OC)cc1	0.042 (≈ 0.0943 nM)	0.044 (≈ 0.0988 nM)	> 1		
CO[C@@H]1[C@H](OC(=O)NCc2ccccc2)CC[C@]2(CO2)[C@H]1[C@@]1(C)O[C@@H]1CC=C(C)C	0.01 (≈ 0.0241 nM)	0.07 (≈ 0.168 nM)	> 1		
COc1ccc(/C=C/C(=O)O[C@@H]2CC[C@]3(CO3)[C@@H]([C@@]3(C)O[C@@H]3CC=C(C)C)[C@@H]2OC)cc1			> 1	0.00019 (≈ 0.000429 nM)	0.00006 (≈ 0.000136 nM)
C/C=C/C=C/C(=O)O[C@@H]1CC[C@]2(CO2)[C@@H]([C@@]2(C)O[C@@H]2CC=C(C)C)[C@@H]1OC	5.05 (≈ 13.4 nM)	12 (≈ 31.9 nM)	> 1		
CO[C@@H]1[C@H](OC(=O)/C=C/C=C/C=C/C=C/C(=O)O)CC[C@]2(CO2)[C@H]1[C@@]1(C)O[C@@H]1CC=C(C)C [FUMAGILLIN]	0.42 (≈ 0.916 nM)	0.37 (≈ 0.807 nM)	> 1		
CO[C@@H]1[C@H](OC(=O)NC(=O)CCl)CC[C@]2(CO2)[C@H]1[C@@]1(C)O[C@@H]1CC=C(C)C [O-CHLOROACETYLCARBAMOYLFUMAGILLOL]	0.03 (≈ 0.0746 nM)	0.04 (≈ 0.0995 nM)	> 10		
